We go through 60 molecules from PubChem BioAssay AID1884 (NMMLSC, 2009).

Usually Ki stands for a measure of affinity in units of concentration, obtained from inhibition or displacement. A lower Ki goes with a stronger hold on the target. One may read the EC50 as the concentration needed to bring the measured effect to its halfway point.

This test has as its target Regulator of G-protein signaling 19 (Homo sapiens) (UniProt P49795). Briefly: modulators of RGS19-Galphao binding, dose response, biochemical, multiplexed bead flow cytometry (AID 1884). Conditions: bead-based flow cytometry RGS19-Galphao binding; for Ki: measured here: Ki for RGS19-Galphao. On the technique in general: In flow cytometry, cells or beads pass a laser one at a time.

Activity calls are given as the source filed them. No rule for the calls is given here.

Chain of Regulator of G-protein signaling 19 (Homo sapiens) (P49795 whole entry, looked up): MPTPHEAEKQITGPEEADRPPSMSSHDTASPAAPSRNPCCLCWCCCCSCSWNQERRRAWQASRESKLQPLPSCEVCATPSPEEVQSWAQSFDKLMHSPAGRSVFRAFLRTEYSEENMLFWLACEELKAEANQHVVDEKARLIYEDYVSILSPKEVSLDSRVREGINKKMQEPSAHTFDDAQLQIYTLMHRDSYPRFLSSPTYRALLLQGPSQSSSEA

Turning to `Cc1cccc(N2CCN(C(=O)Cn3sc4nc(C)cc(C)c4c3=O)CC2C)c1` (configuration not stated), the Ki worked out at 1.27 µM.
The molecule `Cc1ccc(NC(=O)Cn2sc3nc(C)cc(C)c3c2=O)c(Cl)c1` showed a Ki of 0.47 µM. Against the preceding molecule, the Ki is about 2.7-fold lower.
`CCCCn1c(-c2csc(C(C)C)c2)n[nH]c1=S`: the Ki amounted to 10.7 µM.
As for `CCOC(=O)/C(C(=O)Nc1ccccc1Cl)=C1/NC(C)(C)Cc2ccccc21`, the EC50 is > 30 µM (inactive).
`O=[N+]([O-])c1ccc(Sc2cccc[n+]2[O-])c2nonc12` showed a Ki of 0.82 µM.
On to `O=c1[nH]c(=S)n(Cc2ccco2)c(O)c1C=NCc1cccs1`, for which the EC50 was > 30 µM (inactive).
As for `CCOc1ccccc1-c1c2cc(O)c(=O)cc-2oc2cc(O)c(O)cc12`, the Ki is 0.93 µM.
In turn, `CCC(=O)NC1=C(Cl)C(=O)C(NC(=O)CC)=C(Cl)C1=O` gave a Ki of 0.76 µM.
Still for that read-out and setting: as for `Cc1[nH]n(-c2ccccc2)c(=S)c1C=NCCCN=Cc1c(C)[nH]n(-c2ccccc2)c1=S`, the figure is 2.63 µM.
Molecule `Cc1cc(C)c2c(=O)n(CC(=O)Nc3ccc(Cl)cc3)sc2n1` gave an inhibition constant Ki of 1.45 µM.
The molecule `CCC(=O)NC(c1ccc(C)cc1)c1cc([N+](=O)[O-])c2cccnc2c1O` (configuration not stated) displayed an inhibitory constant (Ki) of 2.07 µM.
As to `CN(C)c1ncc(C2=C(Cl)C(=O)C(N3CCCC3)=C(Cl)C2=O)s1`, the Ki came out at 0.79 µM.
For `Cc1ccccc1-n1sc2cc(F)ccc2c1=O`, the Ki was 0.43 µM. Against the preceding molecule, the Ki is about 1.8-fold lower.
In the case of `NS(=O)(=O)c1ccc(N/N=C/c2ccc(O)c(O)c2O)c([N+](=O)[O-])c1`, the EC50 was 0.68 µM and the Ki is 0.63 µM.
For `CCN1/C(=C/C(C)=C/c2sc3ccccc3[n+]2CC)Sc2ccccc21`, the Ki turned out to be 5.74 µM.
`O=c1c2ccccc2sn1-c1cc(S(=O)(=O)N2CCOCC2)ccc1N1CCCC1`: the Ki worked out at 0.44 µM.
Molecule `O=C(O)C[C@@H]1C(=O)O[C@@H]2C(COC(=O)c3cc(O)c(O)c(O)c3)O[C@@H](OC(=O)c3cc(O)c(O)c(O)c3)[C@@H](OC(=O)c3cc(O)c(O)c4c3[C@H]1[C@H](O)C(=O)O4)[C@H]2OC(=O)c1cc(O)c(O)c(O)c1` (some centres not stated) displayed a Ki of 5.37 µM.
Take `Cc1[nH]n(-c2ccccc2)c(=S)c1C=Nc1cccc([N+](=O)[O-])c1`: the inhibition constant Ki was found to be 1.59 µM.
Still for that read-out and setting: as for `O=C(Cc1csc(N2CCOCC2)n1)N/N=C/c1ccc(O)c(O)c1O`, the figure is 4.6 µM; as for `C/C(=N/NC(=O)c1cc(O)c(O)c(O)c1)c1ccc([N+](=O)[O-])cc1`, 18.7 µM.
`CN=c1scc(C)n1/N=C/c1ccc(O)c(O)c1O` gave a Ki of 2.64 µM.
`CN(C)[C@@H]1C(=O)C(C(=O)NCN2CCCC2)=C(O)[C@@]2(O)C(=O)C3=C(O)c4c(O)cccc4[C@@](C)(O)C3CC12` (some centres not stated): the EC50 is 7.53 µM and the Ki came out at 7.07 µM.
With `CCOC(=O)C1=C(C)NC(C)=C(C(=O)OCCNC(=O)c2cccnc2)C1c1cccc([N+](=O)[O-])c1` (configuration not stated), the EC50 was > 30 µM (inactive).
With `O=C(NCCCN1CCOCC1)c1sc2cc([N+](=O)[O-])ccc2c1Cl`, the Ki is 2.05 µM.
The molecule `NS(=O)(=O)c1ccc(CNC(=O)/C=C/c2ccco2)cc1` came in with a Ki of 10.7 µM. Against the preceding molecule, the Ki is about 5.2-fold higher.
In turn, `Cc1ccc(-n2sc3ccccc3c2=O)cc1S(=O)(=O)N1CCCCC1` yielded a Ki of 0.57 µM.
Still for that read-out and setting: as for `O=c1c2ccccc2sn1-c1ccc(S(=O)(=O)N2CCCC2)cc1`, the figure is 0.95 µM; as for `O=C(COc1ccccc1C(=O)N/N=C\c1ccc(O)c(O)c1)N/N=C/c1ccc(O)c(O)c1`, 3.98 µM; as for `CCCNC(=O)Cn1sc2nc(C)cc(C)c2c1=O`, 0.93 µM.
On the same count and under the same terms, as for `O=c1c2ccccc2sn1-c1ccccc1`, the figure is 0.3 µM.
Same read-out and setting: as for `O=C(OCC1O[C@@H](OC(=O)c2cc(O)c(O)c(O)c2)[C@@H](OC(=O)c2cc(O)c(O)c(O)c2)[C@@H](OC(=O)c2cc(O)c(O)c(O)c2)[C@@H]1OC(=O)c1cc(O)c(O)c(O)c1)c1cc(O)c(O)c(O)c1` (some centres not stated), the figure is 4.12 µM.
On to `CC(C)Sc1nc2ccc(N3C(=O)C4CCCCC4C3=O)cc2s1` (configuration not stated), for which the EC50 is > 30 µM (inactive).
In turn, `COc1ccccc1-n1c(-c2cc(-c3ccco3)[nH]n2)n[nH]c1=S` displayed an inhibition constant (Ki) of 13.2 µM.
`O=C1CCC(=O)N(O)CCCCCNC(=O)CCC(=O)N(O)CCCCCNC(=O)CCC(=O)N(O)CCCCCN1` registered a Ki of 1.93 µM.
Consider `CCOC(=O)c1sc(NC(=O)CSc2nnc(Cc3ccccc3)o2)c(C#N)c1C`, for which the Ki was 1.33 µM.
In turn, `COC(=O)c1c(-c2ccc(C(C)(C)C)cc2)csc1NC(=O)C1C2CCC(O2)C1C(=O)O` (configuration not stated) gave a Ki of 7.55 µM.
`CN1CCN(C2=C(Cl)C(=O)C(c3cnc(N4CCCCC4)s3)=C(Cl)C2=O)CC1` yielded a Ki of 0.01 µM.
`COC(=O)CCC(=O)Nc1sc(C)c(C)c1C(N)=O` yielded a Ki of 4.09 µM. Against the preceding molecule, the Ki is about 410-fold higher.
In turn, `CC(=O)N1CC[n+]2c(-c3ccc([N+](=O)[O-])cc3)csc21` gave a Ki of 7.17 µM.
`O=c1c2ccccc2sn1-c1cc(S(=O)(=O)N2CCOCC2)ccc1N1CCOCC1` returned an inhibitory constant (Ki) of 0.11 µM.
Regarding `CCOC(=O)N=Nc1c(O)n(C)c2ccccc12`, the EC50 is > 30 µM (inactive).
Molecule `CCN(CC)S(=O)(=O)c1cccc(C(=O)N/N=C/c2ccc(O)c(O)c2O)c1` yielded a Ki of 2.03 µM.
Same read-out and setting: as for `CCN(CC)S(=O)(=O)c1cccc(-c2n[nH]c(=S)n2/N=C/c2ccc(C(=O)OC)cc2)c1`, the figure is 5.82 µM.
In the case of `O=C(O[C@@H]1OC2COC(=O)c3cc(O)c(O)c(O)c3-c3c(cc(O)c(O)c3O)C(=O)O[C@@H]([C@H]1O)[C@@H]2O)c1cc(O)c(O)c(O)c1`, the Ki was determined as 2.98 µM.
`COc1ccc(C2=CC(=O)C=CC2=O)cc1`: the inhibition constant (Ki) was 1.84 µM.
On to `O=C1C(Cl)=C(N2CCCCC2)C(=O)C(Cl)=C1c1cnc(N2CCCCC2)s1`, for which the Ki stood at 0.63 µM.
Same read-out and setting: as for `CC(=O)OCCCNc1cc(Sc2nc3ccccc3s2)c2nonc2c1[N+](=O)[O-]`, the figure is 0.92 µM.
Consider `Cc1cc(C)c2c(=O)n(CC(=O)Nc3cccc(F)c3)sc2n1`, for which the Ki amounted to 1.16 µM.
Regarding `O=C1CCCC2=C1C(c1cccs1)n1ncnc1N2` (configuration not stated), the EC50 is > 30 µM (inactive).
Molecule `CCc1c(C(=O)Nc2ccccc2)c(C)[nH]c(=S)c1C#N` yielded a Ki of 10.5 µM.
Take `CCOC(=O)C1CCCN(C(=O)Cn2sc3nc(C)cc(C)c3c2=O)C1` (configuration not stated): the Ki worked out at 2.1 µM. This Ki is about 5-fold lower than that of the molecule before.
As for `COc1ccc(Br)cc1/C=N/Nc1cccc(C(=O)O)c1`, the EC50 is > 30 µM (inactive).
In the case of `CN(C)S(=O)(=O)c1cccc(-n2sc3ccccc3c2=O)c1`, the inhibition constant (Ki) amounted to 0.15 µM.
Regarding `CC1(C)OC(=O)C(=Cc2ccc(-c3ccc(S(N)(=O)=O)cc3)o2)C(=O)O1`, the Ki came out at 2.87 µM.
The molecule `Cc1cc(Cl)ccc1N=c1ssnc1Cl` gave an inhibitory constant (Ki) of 4.13 µM. This Ki and that of the molecule before are within 1.5-fold of each other.
`COc1ccc(OC)c(CCNC(=O)Cn2sc3nc(C)cc(C)c3c2=O)c1` showed a Ki of 1.14 µM.
Regarding `COCCCNC(=O)c1ccc2c3c(onc13)-c1ccccc1C2=O`, the Ki came to 3.63 µM.
On the same count and under the same terms, as for `CCN=c1scc(C)n1/N=C/c1ccc(O)c(O)c1O`, the figure is 4.33 µM; as for `CC(=O)N(O)CCCCCNC(=O)CCC(=O)N(O)CCCCCNC(=O)CCC(=O)N(O)CCCCCN`, 3.84 µM.
Consider `CC(NC(=O)c1sc2cc([N+](=O)[O-])ccc2c1Cl)C(C)(C)C` (configuration not stated), for which the Ki amounted to 0.96 µM.
